From patent US20100196929A1, “STABILISATION OF THE PHENOTYPIC PROPERTIES OF ISOLATED PRIMARY CELLS” (Vrije Universiteit Brussel, priority 2007, published 2010)

How the values were obtained:
[1] = system: EGF-stimulated cultured hepatocytes; assay: Cell morphology by inverse light microscopy; format: cell-based, rat
Description: (§1) Hepatocytes (viability >80%) were isolated from male Sprague-Dawley rats by a two-step collagenase perfusion. Cells (0.4×10^5 cells/cm^2) were cultured in MEM/M199 (3:1, v/v), containing 1 mg/ml BSA, 5 μg/ml bovine insulin, 2 mM L-glutamine, antibiotics (7.3 IU/ml benzyl penicillin, 50 μg/ml streptomycin sulphate, 50 μg/ml kanamycin monosulphate and 10 μg/ml sodium ampicillin) and 10% (v/v) fetal calf serum.
(§2) After 4 h, medium was removed and serum-free medium, containing 0.5 μg/ml hydrocortisone and 50 μg/ml EGF, was added and renewed daily.
(§3) 1) unstimulated cultures, referred to as “negative control” or “−EGF”, where hepatocytes are arrested at the mitogen-dependent R-point. 2) EGF-stimulated cultures, referred to as “positive control” or “+EGF”, in which EGF induces G1/S transition and mitosis. 3) EGF-stimulated cultures treated with DAC and/or in combination with 4-Me2N-BAVAH or AN-8.
Cell morphology was analyzed by inverse light microscopy, using an Optiphot Nikon Phase Contrast microscope.

[2] = system: EGF-stimulated adult primary rat hepatocytes; assay: DNA synthesis ([methyl-3H]-thymidine incorporation) in EGF-stimulated hepatocytes; format: cell-based; settings: 72 hours; for dose-response of inhibition of DNA replication: increasing concentrations (4-Me2N-BAVAH 10-50 μM, AN-8 1-5 μM, DAC 1-500 μM)
Description: as §1, §2
DAC was dissolved in PBS, 4-Me2N-BAVAH and AN-8 were dissolved in ethanol, to a concentration of 100 mM for DAC and 4-Me2N-BAVAH and 25 mM for AN-8.
as §3
DNA replication was measured as incorporation of radioactively labeled thymidine into newly synthesized DNA. Cells were incubated with [methyl-3H]-thymidine (25 Ci/mmol) for 24 hours and harvested at 72 hours in ice-cold PBS, the time point where DNA synthesis in untreated EGF-stimulated cultures is maximal. DNA was precipitated with 30% trichloroacetic acid (TCA) overnight at 4° C. After centrifugation, cells were washed once with 10% TCA and twice with 5% TCA. The pellet was solved in formic acid and radioactively labeled thymidine was measured by liquid scintillation counting.
From the moment of seeding, adult primary rat hepatocytes, stimulated with EGF 4 hours after plating and constantly thereafter, were exposed to different concentrations of 4-Me2N-BAVAH (10 μM, 15 μM, 20 μM, 25 μM and 50 μM), AN-8 (1 μM, 2.5 μM and 5 μM) or DAC (1 μM, 10 μM, 50 μM, 100 μM, 250 μM and 500 μM). [methyl-3H]-Thymidine incorporation was measured at 72 hours.
From the moment of seeding, adult primary rat hepatocytes, stimulated with EGF 4 hours after plating and constantly thereafter, were exposed to different combinations of 4-Me2N-BAVAH and DAC or AN-8 and DAC:
[methyl-3H]-Thymidine incorporation was measured at 72 hours.

[3] = system: EGF-stimulated adult primary rat hepatocytes; assay: Albumin secretion into culture medium (ELISA); format: cell-based; settings: 48-72 hours of culture
Description: as §1, with “are” for “were”
After 4 h, medium was removed and serum-free medium, containing 0.5 μg/ml hydrocortisone and 50 μg/ml EGF, is added and renewed daily.
1) EGF-stimulated cultures, referred to as “positive control” or “control”. 2) EGF-stimulated cultures treated with DAC and/or in combination with 4-Me2N-BAVAH or AN-8.
Medium samples were analyzed for their albumin content by an enzyme-linked immunosorbent assay (ELISA) according to Dunn et al. 1991 (Biotechnol Prog 7(3): 237-245).
From the moment of seeding, adult primary rat hepatocytes, stimulated with EGF 4 hours after plating and constantly thereafter, were exposed to 50 μM 4-Me2N-BAVAH, 5 μM AN-8 or 500 μM DAC. Albumin secretion into the culture medium was measured between 48-72 hours of culture (FIG. 7A-C).
From the moment of seeding, adult primary rat hepatocytes, stimulated with EGF 4 hours after plating and constantly thereafter, were exposed to a combination of 25 μM 4-Me2N-BAVAH and 50 μM DAC. Albumin secretion into the culture medium is measured between 48-72 hours of culture (FIG. 8A).

CYP1A1 = CYP1A1 protein expression (immunoblot); format: cell-based, rat; settings: increasing concentrations (DAC 1-500 μM, AN-8 1-5 μM); 72 h
Description: as §1, with “two step” for “two-step”, “serum. After 4 h, medium was removed and serum-free medium, containing 0.5 μg/ml hydrocortisone and 50 μg/ml EGF, was added and renewed daily. DAC was dissolved in PBS, whereas AN-8 was dissolved in ethanol to a concentration of 100 mM for DAC and 25 mM for AN-8.” for “serum.”
1) EGF-stimulated cultures, referred to as C. 2) EGF-stimulated cultures, exposed to 0.02% v/v ethanol, referred to as S. 3) EGF-stimulated cultures treated with DAC and/or AN-8.
At 72 h, cultured hepatocytes were harvested in ice-cold PBS. Cell pellets were lysed in homogenization buffer, sonicated and left for 1 hour on ice. After centrifugation, the protein concentration in the supernatant was determined. 50 μg proteins were separated by sodium dodecyl sulphate polyacrylamide gel electrophoresis (SDS-PAGE, 7.5%) and transferred to nitrocellulose membranes. Subsequently, membranes are immersed into Ponceau S to examine equal sample loading. […] Proteins were detected by using an enhanced chemiluminescence detection system. […]

primary hepatocytes = settings: cited from earlier work
hepatoma cell lines = settings: cited from earlier work

| SMILES | dose-response of inhibition of DNA replication [2] | CYP1A1 protein expression vs untreated hepatocyte cultures (CYP1A1) | apoptosis (primary hepatocytes) | apoptosis (hepatoma cell lines) | other results |
| --- | --- | --- | --- | --- | --- |
| O=C(CCCCCNC(=O)c1ccc(N2CCCC2)cc1)NO [AN-8] | clear dose-response relationship | dose-dependent higher CYP1A1 protein expression |  |  | cell shape vs untreated control cultures with EGF alone ([1]; 5 μM): retained better the in vivo-like cuboidal shape; inhibition of proliferation (morphological appearance) vs untreated +EGF culture ([1]; 5 μM): clear inhibition of proliferation; inhibition of the DNA synthesis ([2]; 5 μM): complete inhibition; increase in albumin secretion compared to control cultures ([3]; 5 μM): 2.1 fold |
| CCCC(CCC)C(=O)O [valproate] |  |  | not | induce apoptosis |  |
| CCN(CC)Cc1ccc2cc(COC(=O)Nc3ccc(C(=O)NO)cc3)ccc2c1 [ITF2357] |  |  | not | induce apoptosis |  |
| CC(/C=C/C(=O)NO)=C\[C@@H](C)C(=O)c1ccc(N(C)C)cc1 [TSA, Trichostatin A] |  |  | not | induce apoptosis |  |
| Nc1ncn([C@H]2C[C@H](O)[C@@H](CO)O2)c(=O)n1 [DAC, 5-aza-2′-deoxycytidine] | clear dose-response relationship | dose-dependent higher CYP1A1 protein expression |  |  | cell shape vs untreated control cultures with EGF alone ([1]; 500 μM): retained better the in vivo-like cuboidal shape; inhibition of proliferation (morphological appearance) vs untreated +EGF culture ([1]; 500 μM): clear inhibition of proliferation; inhibition of the DNA synthesis ([2]; 500 μM): complete inhibition; increase in albumin secretion compared to control cultures ([3]; 500 μM): 1.8 fold |
| CN(C)c1ccc(C(=O)NCCCCC(=O)NO)cc1 [4-Me2N-BAVAH, 5-(4-dimethylaminobenzoyl)-aminovaleric acid hydroxamide] | clear dose-response relationship |  |  |  | inhibition of the DNA synthesis ([2]; 50 μM): complete inhibition; increase in albumin secretion compared to control cultures ([3]; 50 μM): 2.4 fold |
